Article PMC9973354 (mBio, 2022)

Key:
[1] = test system: PA14 ΔfpvA ΔfpvB pHERD20T-fpvA T660C; assay: MIC assay, ΔfpvA ΔfpvB expressing FpvA T660C; type: cell-based, Pseudomonas aeruginosa; conditions: 10:90 + 2% arabinose
From the text: (§1) FpvA T660C was used previously to measure pyoverdine-Fe^3+ binding affinity ([32]). However, this technique has not been applied to FpvB. A high-confidence structural model of FpvB was generated using AlphaFold2 ([33], [34]) and aligned with the structure of FpvA (PDB accession number 2O5P) to identify a residue suitable for labeling, with the assumption that FpvA and FpvB undergo similar conformational changes upon ferrisiderophore binding (see Fig. S3A through C in the supplemental material). Based on this analysis, FpvB R648 was mutated to Cys. FpvA T660C and FpvB R648C were each expressed in trans in the ΔfpvA ΔfpvB mutant. […] We could also detect expression by fluorescence microscopy with peripheral labeling consistent with expression in the outer membrane (Fig. 3B). Labeling was undetectable in empty vector and WT controls (see Fig. S4A in the supplemental material).
(§2) Supplementary file : FIG S3 Overlay of FpvA and FpvB showing residues mutated to cysteine for labeling with maleimide dyes. FpvA (PDB accession number 2O5P) was superimposed with the AlphaFold2 model of FpvB. FpvA is shown in beige and FpvB in blue. […]
(§3) MIC assays were conducted as previously described ([13], [14]). […] The next day, the OD600 was determined with a plate reader (Thermo Scientific) and normalized to percent of growth of the vehicle control after subtracting the OD600 from blank media.

[2] = test system: PA14 ΔfpvA ΔfpvB pHERD20T-fpvA; assay: MIC assay, ΔfpvA ΔfpvB complemented with fpvA; type: cell-based, Pseudomonas aeruginosa; conditions: complementation with fpvA, arabinose induction, 10:90
Procedure: (§4) The ΔfpvA ΔfpvB mutant was complemented in trans with pHERD20T-fpvA or pHERD20T-fpvB. pHERD20T is an arabinose-inducible vector with expression driven by the PBAD promoter under the control of AraC ([30]).
(§5) MIC assays were conducted as previously described ([13], [14]). Overnight cultures were grown in LB from a glycerol stock at 37°C with shaking (200 rpm). Subcultures in 10:90 (1:100 dilution) were cultured for 4 h. Cells were adjusted to an optical density at 600 nm (OD600) of 0.1/500 in 10:90. All compounds were serially diluted 2-fold in dimethyl sulfoxide (DMSO) or H2O at 75× the final concentration. Plates were sealed to prevent evaporation and incubated at 37°C overnight in a shaking incubator (200 rpm). The next day, the OD600 was determined with a plate reader (Thermo Scientific) and normalized to percent of growth of the vehicle control after subtracting the OD600 from blank media.

[3] = test system: PA14 ΔfpvA ΔfpvB ΔfiuA ΔfoxA pHERD20T-fpvB D219A; assay: Growth of quadruple mutant expressing FpvB D219A; type: cell-based, Pseudomonas aeruginosa; conditions: 10:90 + 2% arabinose
Procedure: (§6) Site-directed mutagenesis was used to confirm the docking predictions and to define the molecular determinants for ligand uptake through FpvB (Fig. 4C). We generated 17 single amino acid substitutions in FpvB and expressed each of them in trans in the quadruple ΔfpvA ΔfpvB ΔfiuA ΔfoxA mutant. Their ability to complement growth of the mutant in the presence of ferrichrome and ferrioxamine B and to restore TS susceptibility was assessed. […] The mutant transporters were tagged with a C-terminal FLAG tag to evaluate expression levels. FLAG-tagged FpvB mutants had WT levels of expression except for Y216T and W347V, which were expressed at 140% and 25% of WT, respectively.
(§7) The ΔfpvA ΔfpvB ΔfiuA ΔfoxA mutant was complemented with WT fpvA, fpvB, fiuA, and foxA in trans as controls (Fig. 4E).
as §5, with “Plates were sealed to prevent evaporation and incubated at 37°C overnight in a shaking incubator (200 rpm).” left out

[4] = test system: PA14 ΔfpvA ΔfpvB ΔfiuA ΔfoxA pHERD20T-fpvB Y412A; assay: Growth of quadruple mutant expressing FpvB Y412A; type: cell-based, Pseudomonas aeruginosa; conditions: 10:90 + 2% arabinose
Procedure: as §6, §7
as §5, with “Plates were sealed to prevent evaporation and incubated at 37°C overnight in a shaking incubator (200 rpm).” left out

[5] = test system: PA14; assay: MIC assay, WT PA14; type: cell-based, Pseudomonas aeruginosa; conditions: WT PA14, iron-limited medium (10:90)
Procedure: as §5

[6] = test system: PA14 ΔfpvA ΔfpvB pHERD20T-fpvB R648C; assay: MIC assay, ΔfpvA ΔfpvB expressing FpvB R648C; type: cell-based, Pseudomonas aeruginosa; conditions: 10:90 + 2% arabinose
From the text: as §1, §2, §3

[7] = test system: PA14 ΔfpvB mutant; assay: MIC assay, ΔfpvB mutant; type: cell-based, Pseudomonas aeruginosa; conditions: 10:90, growth reduced at 17 μg/mL
Procedure: as §5

[8] = test system: PA14 ΔfpvA ΔfpvB pHERD20T-fpvB; assay: MIC assay, ΔfpvA ΔfpvB complemented with fpvB; type: cell-based, Pseudomonas aeruginosa; conditions: complementation with fpvB, arabinose induction, 10:90; susceptibility greater than with fpvA
Procedure: as §4, §5

[9] = test system: PA14 ΔfpvA ΔfpvB ΔfiuA ΔfoxA pHERD20T; assay: Growth of quadruple mutant with empty vector; type: cell-based, Pseudomonas aeruginosa; conditions: 10:90 + 2% arabinose
Procedure: as §6, §7
as §5, with “Plates were sealed to prevent evaporation and incubated at 37°C overnight in a shaking incubator (200 rpm).” left out

[10] = test system: PA14 ΔfpvA ΔfpvB ΔfiuA ΔfoxA pHERD20T-fpvB Y216T; assay: Growth of quadruple mutant expressing FpvB Y216T; type: cell-based, Pseudomonas aeruginosa; conditions: 10:90 + 2% arabinose
Procedure: as §6, §7
as §5, with “Plates were sealed to prevent evaporation and incubated at 37°C overnight in a shaking incubator (200 rpm).” left out

[11] = Maximum soluble TS concentration; conditions: in MIC assay medium
[12] = test system: PA14 ΔfpvA mutant; assay: MIC assay, ΔfpvA mutant; type: cell-based, Pseudomonas aeruginosa; conditions: ΔfpvA mutant, iron-limited medium (10:90)
Procedure: as §5

[13] = highest concentration tested, 10μM fluorescein-5-maleimide in PBS
Procedure: Supplementary file : FIG S4 (A) Microscopy images of the PA14 ΔfpvA ΔfpvB strain with pHERD20T, pHERD20T-fpvA, and pHERD20T-fpvB treated with Alexa Fluor 594. Representative images are shown. Scale, 5μm. (B) TS partly quenches fluorescence of fluorescein-5-maleimide in the absence of cells. Each compound at the highest concentration tested was added to 10μM of fluorescein-5-maleimide in PBS in triplicate. TS reduced fluorescence to about 80% of the control. (Excitation, 485nm; emission, 528nm). ***, P < 0.001 (Student’s t test). […] Results are averaged from three independent biological replicates. Download FIG S4, EPS file, 39.8 MB.
TS was omitted from these studies because it quenched fluorescence (~20%) of the dye in the absence of cells (Fig. S4B). In the absence of protein, none of the three siderophores quenched fluorescence of the dye at the highest concentrations tested. Quenching curves were then generated and used to calculate the dissociation constant (Kd).

[14] = test system: PA14 ΔfpvA ΔfpvB mutant; assay: MIC assay, ΔfpvA ΔfpvB mutant; type: cell-based, Pseudomonas aeruginosa; conditions: ΔfpvA ΔfpvB mutant, 10:90
Procedure: as §5

[15] = test system: PA14 ΔfpvA ΔfpvB ΔfiuA ΔfoxA quadruple mutant; assay: Growth phenotypes of deletion mutants, quadruple mutant; type: cell-based, Pseudomonas aeruginosa; conditions: 17 μg/mL TS, 10:90
From the text: PA14, ΔfpvA, ΔfpvB, and ΔfpvA ΔfpvB strains treated with TS (A) and DSX (B) in 10:90. Green indicates growth, and white indicates no growth. Growth is expressed as percent of control. The PA14 ΔfpvA ΔfpvB strain complemented with pHERD20T, fpvA, or fpvB treated with TS (C) and DSX (D) in 10:90. […] All experiments are averaged from three independent biological replicates. Blue indicates growth and white indicates no growth. (H) Summary of growth phenotypes of WT PA14 and combinations of single, double, triple, and quadruple deletion mutants in fpvA, fpvB, fiuA, and foxA. […] Green indicates growth, whereas no growth is indicated in white. […] Representative plates are shown.
If there were no transporters for a particular siderophore, the mutant would fail to grow due to iron restriction.

## C=C(NC(=O)C(=C)NC(=O)c1csc(C2=N[C@@H]3c4csc(n4)[C@H]4NC(=O)c5csc(n5)[C@H]([C@](C)(O)[C@@H](C)O)NC(=O)[C@H]5CSC(=N5)/C(=C/C)NC(=O)[C@H]([C@@H](C)O)NC(=O)c5csc(n5)[C@]3(CC2)NC(=O)[C@H](C)NC(=O)C(=C)NC(=O)[C@H](C)NC(=O)[C@H]([C@@H](C)CC)N[C@@H]2C=Cc3c([C@H](C)O)cc(nc3[C@H]2O)C(=O)O[C@@H]4C)n1)C(N)=O [TS, thiostrepton]
[1]
  increase of susceptibility to TS compared to WT FpvA: 4 fold
[2]
  TS susceptibility: restored TS susceptibility
[3]
  TS susceptibility: reduced TS susceptibility
[4]
  TS susceptibility: reduced TS susceptibility
[5]
  TS susceptibility (MIC assay): susceptible
[6]
  TS susceptibility: WT susceptibility
[7]
  TS susceptibility (MIC assay): resistant
[8]
  TS susceptibility: restored TS susceptibility
[9]
  TS susceptibility: resistant
[10]
  TS susceptibility: reduced TS susceptibility
[11]
  maximum soluble concentration: 17 µg/mL
[12]
  TS susceptibility (MIC assay): susceptible
[13]
  dye fluorescence remaining: about 80 % of the control
  quenching of dye fluorescence in the absence of cells: ~ 20%
[14]
  TS susceptibility (MIC assay): resistant
[15]
  TS susceptibility: resistant
